According to US20070027150A1 (priority 2005, published 2007):

Molecular target: His-tagged N-terminal ATP binding domain (amino acid residues 9-236) of HSP90α (Homo sapiens, UniProt P07900)
Assay: HSP90 inhibitor binding potency: TRF competition binding assay
Conditions: Table I; read-out: Hsp90 IC50 Range
Procedure, shortened: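 Competition against biotinylated radicicol for binding to the His-tagged 9-236 ATP domain of HSP90α: 2 h, room temperature, HEPES/MgCl2/KCl/BSA buffer. Streptavidin capture, then europium-labeled anti-His antibody and enhancement solution; europium counts give IC50.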

How did the IC50 turn out when Cc1nc(N)nc2c1C(=O)CC(c1ccccc1-c1ccc(F)cc1)C2 (centres unmarked) [Compound 53, 2-amino-7-(4′-fluoro-1,1′-biphenyl-2-yl)-4-methyl-7,8-dihydroquinazolin-5(6H)-one] was run?
Its IC50 is less than 1000 nM.

For Cc1nc(N)nc2c1C(=O)CC(c1ccccc1-c1cncc3ccccc13)C2 (centres unmarked) [Compound 100, 2-amino-7-(2-isoquinolin-4-ylphenyl)-4-methyl-7,8-dihydroquinazolin-5(6H)-one], which IC50 is on record?
The IC50 was 1000 to 10000 nM.

Cc1nc(N)nc2c1C(=O)CC(c1ccccc1Oc1cccc(F)c1)C2 (centres unmarked) [Compound 137, 2-amino-7-[2-(3-fluorophenoxy)phenyl]-4-methyl-7,8-dihydroquinazolin-5(6H)-one] was tested. Which IC50 did it give?
The IC50 was less than 1000 nM.

With Cc1nc(N)nc2c1C(=O)CC(c1ccc(F)cc1Oc1ccccc1)C2 (centres unmarked) [Compound 140, 2-amino-7-(4-fluoro-2-phenoxy-phenyl)-4-methyl-7,8-dihydro-6H-quinazolin-5-one] as the molecule, how does the IC50 read?
The IC50 was less than 1000 nM.

How did the IC50 turn out when Cc1nc(N)nc2c1C(=O)CC(c1cccc(-c3ccccc3F)c1)C2 (centres unmarked) [Compound 58] was run?
The IC50 was greater than 10000 nM.

For Cc1nc(N)nc2c1C(=O)CC(c1cccnc1-c1ccccc1F)C2 (centres unmarked) [Compound 57, 2-amino-7-[2-(2-fluorophenyl)pyridin-3-yl]-4-methyl-7,8-dihydroquinazolin-5(6H)-one], which IC50 is on record?
Its IC50 is less than 1000 nM.

Cc1nc(N)nc2c1C(=O)CC(c1ccccc1-c1cccnc1Cl)C2 (centres unmarked) [Compound 80, 2-amino-7-[2-(2-chloropyridin-3-yl)phenyl]-4-methyl-7,8-dihydroquinazolin-5(6H)-one] was tested. Which IC50 did it give?
Its IC50 is less than 1000 nM.

How did the IC50 turn out when COc1ccc(-c2ccccc2C2CC(=O)c3c(C)nc(N)nc3C2)c(OC)c1 (centres unmarked) [Compound 107, 2-amino-7-(2′,4′-dimethoxy-1,1′-biphenyl-2-yl)-4-methyl-7,8-dihydroquinazolin-5(6H)-one] was run?
Its IC50 is 1000 to 10000 nM.

With CCOc1ccccc1C1CC(=O)c2c(C)nc(N)nc2C1 (centres unmarked) [Compound 148, 2-amino-7-(2-ethoxy-phenyl)-4-methyl-7,8-dihydro-6H-quinazolin-5-one] as the molecule, how does the IC50 read?
Its IC50 is less than 1000 nM.

For COc1cccc(C2CCCCC2)c1C1CC(=O)c2c(C)nc(N)nc2C1 (centres unmarked) [Compound 173, 2-amino-7-(2-cyclohexyl-6-methoxyphenyl)-4-methyl-7,8-dihydroquinazolin-5(6H)-one], which IC50 is on record?
Its IC50 is greater than 10000 nM.

How did the IC50 turn out when Cc1nc(N)nc2c1C(=O)CC(c1ccccc1-c1cccnn1)C2 (centres unmarked) [Compound 115, 2-amino-4-methyl-7-(2-pyridazin-3-ylphenyl)-7,8-dihydroquinazolin-5(6H)-one] was run?
Its IC50 is 1000 to 10000 nM.

How did the IC50 turn out when Cc1nc(N)nc2c1C(=O)CC(c1ccc(Cl)cc1)C2 (centres unmarked) [Compound 3, 2-amino-7-(4-chlorophenyl)-4-methyl-7,8-dihydroquinazolin-5(6H)-one] was run?
The IC50 was less than 1000 nM.

Cc1cccc(C2CC(=O)c3c(C)nc(N)nc3C2)c1-c1ccccc1 (centres unmarked) [Compound 15, 2-amino-4-methyl-7-(6-methyl-1,1′-biphenyl-2-yl)-7,8-dihydroquinazolin-5(6H)-one] was tested. Which IC50 did it give?
The IC50 was 1000 to 10000 nM.

Which IC50 does the source give for Cc1nc(N)nc2c1C(=O)CC(c1ccccc1-c1cccc(OC(F)(F)F)c1)C2 (centres unmarked) [Compound 112, 2-amino-4-methyl-7-[3′-(trifluoromethoxy)-1,1′-biphenyl-2-yl]-7,8-dihydroquinazolin-5(6H)-one] here?
The IC50 was greater than 10000 nM.

For Cc1nc(N)nc2c1C(=O)CC(c1c(Br)cnn1C)C2 (centres unmarked) [Compound 10, 2-amino-7-(4-bromo-2-methyl-2H-pyrazol-3-yl)-4-methyl-7,8-dihydro-6H-quinazolin-5-one], which IC50 is on record?
Its IC50 is greater than 10000 nM.

Which IC50 does the source give for Cc1nc(N)nc2c1C(=O)CC(c1ccccc1-c1ccnc(Cl)c1)C2 (centres unmarked) [Compound 82, 2-amino-7-[2-(2-chloropyridin-4-yl)phenyl]-4-methyl-7,8-dihydroquinazolin-5(6H)-one] here?
The IC50 was 1000 to 10000 nM.

How did the IC50 turn out when COc1cccc(-c2cccnc2F)c1C1CC(=O)c2c(C)nc(N)nc2C1 (centres unmarked) [Compound 97, 2-amino-7-[2-(2-fluoropyridin-3-yl)-6-methoxyphenyl]-4-methyl-7,8-dihydroquinazolin-5(6H)-one] was run?
The IC50 was less than 1000 nM.

For Cc1nc(N)nc2c1C(=O)CC(c1ccccc1-c1c(F)cccc1F)C2 (centres unmarked) [Compound 85, 2-amino-7-(2′,6′-difluoro-1,1′-biphenyl-2-yl)-4-methyl-7,8-dihydroquinazolin-5(6H)-one], which IC50 is on record?
The IC50 was less than 1000 nM.

Cc1nc(N)nc2c1C(=O)CC(c1ccccc1-c1cccnc1)C2 (centres unmarked) [Compound 26, 2-amino-4-methyl-7-(2-pyridin-3-ylphenyl)-7,8-dihydroquinazolin-5(6H)-one] was tested. Which IC50 did it give?
The IC50 was less than 1000 nM.

With Cc1nc(N)nc2c1C(=O)CC(c1ccccc1Br)C2 (centres unmarked) [Compound 8, 2-amino-7-(2-bromophenyl)-4-methyl-7,8-dihydroquinazolin-5(6H)-one] as the molecule, how does the IC50 read?
Its IC50 is 1000 to 10000 nM.

Which IC50 does the source give for Cc1nc(N)nc2c1C(=O)CC(c1nn(C)cc1C1CCCCC1)C2 (centres unmarked) [Compound 47, 2-amino-7-(4-cyclohexyl-1-methyl-1H-pyrazol-3-yl)-4-methyl-7,8-dihydro-6H-quinazolin-5-one] here?
Its IC50 is less than 1000 nM.

How did the IC50 turn out when CCOc1cccc(-c2ccccc2C2CC(=O)c3c(C)nc(N)nc3C2)n1 (centres unmarked) [Compound 94, 2-amino-7-[2-(6-ethoxy-pyridin-2-yl)-phenyl]-4-methyl-7,8-dihydro-6H-quinazolin-5-one] was run?
Its IC50 is 1000 to 10000 nM.

Same assay, conditions: Table II; read-out: Hsp90 IC50 Range

Nc1ncc2c(n1)CC(c1ccccc1-c1cccc(F)n1)CC2=O (centres unmarked) [Compound 245, 2-amino-7-[2-(6-fluoro-pyridin-2-yl)-phenyl]-7,8-dihydro-6H-quinazolin-5-one] was tested. Which IC50 did it give?
Its IC50 is less than 1000 nM.

Which IC50 does the source give for COc1nccnc1-c1cc(F)ccc1C1CC(=O)c2c(C)nc(N)nc2C1 (centres unmarked) [Compound 281, 2-amino-7-[4-fluoro-2-(3-methoxy-pyrazin-2-yl)-phenyl]-4-methyl-7,8-dihydro-6H-quinazolin-5-one] here?
The IC50 was less than 1000 nM.

With Cc1nc(N)nc2c1C(=O)C(C)C(c1ccccc1)C2 (centres unmarked) [Compound 248, 2-amino-4,6-dimethyl-7-phenyl-7,8-dihydro-6H-quinazolin-5-one] as the molecule, how does the IC50 read?
Its IC50 is less than 1000 nM.

Cc1nc(N)nc2c1C(=O)CC(c1c(F)cccc1-c1cccnc1F)C2 (centres unmarked) [Compound 217, 2-amino-7-[2-fluoro-6-(2-fluoro-pyridin-3-yl)-phenyl]-4-methyl-7,8-dihydro-6H-quinazolin-5-one] was tested. Which IC50 did it give?
Its IC50 is less than 1000 nM.

For Cc1nc(N)nc2c1C(=O)CC(c1ccc(Cl)cc1-c1cccnc1F)C2 (centres unmarked) [Compound 249, 2-amino-7-[4-chloro-2-(2-fluoro-pyridin-3-yl)-phenyl]-4-methyl-7,8-dihydro-6H-quinazolin-5-one], which IC50 is on record?
The IC50 was less than 1000 nM.

COc1cc(Cl)c(C)cc1-n1ccnc1C1CC(=O)c2c(C)nc(N)nc2C1 (centres unmarked) [Compound 330, 2-amino-7-[1-(4-chloro-2-methoxy-5-methyl-phenyl)-1H-imidazol-2-yl]-4-methyl-7,8-dihydro-6H-quinazolin-5-one] was tested. Which IC50 did it give?
The IC50 was 1000 to 10000 nM.

How did the IC50 turn out when Cc1nc(N)nc2c1C(=O)CC(c1ccc(F)cc1OCCC1CC1)C2 (centres unmarked) [Compound 262, 2-amino-7-[2-(2-cyclopropyl-ethoxy)-4-fluoro-phenyl]-4-methyl-7,8-dihydro-6H-quinazolin-5-one] was run?
Its IC50 is less than 1000 nM.

Cc1nc(N)nc2c1C(=O)CC(c1ccc(F)cc1-c1cccc(O)n1)C2 (centres unmarked) [Compound 264, 2-amino-7-[4-fluoro-2-(6-hydroxy-pyridin-2-yl)-phenyl]-4-methyl-7,8-dihydro-6H-quinazolin-5-one] was tested. Which IC50 did it give?
Its IC50 is 1000 to 10000 nM.

For Cc1nc(N)nc2c1C(=O)CC(c1nccn1-c1cccc(OC(F)(F)F)c1)C2 (centres unmarked) [Compound 198, 2-amino-4-methyl-7-[1-(3-trifluoromethoxy-phenyl)-1H-imidazol-2-yl]-7,8-dihydro-6H-quinazolin-5-one], which IC50 is on record?
Its IC50 is greater than 10000 nM.

For Cc1nc(N)nc2c1C(=O)CC(c1nccn1Cc1ccccn1)C2 (centres unmarked) [Compound 209, 2-amino-4-methyl-7-(1-pyridin-2-ylmethyl-1H-imidazol-2-yl)-7,8-dihydro-6H-quinazolin-5-one], which IC50 is on record?
Its IC50 is greater than 10000 nM.

CCc1cccc(-c2cc(F)ccc2C2CC(=O)c3c(C)nc(N)nc3C2)n1 (centres unmarked) [Compound 183, 2-amino-7-[2-(6-ethyl-pyridin-2-yl)-4-fluoro-phenyl]-4-methyl-7,8-dihydro-6H-quinazolin-5-one] was tested. Which IC50 did it give?
Its IC50 is less than 1000 nM.

With COc1nc(-c2cc(F)ccc2[C@@H]2CC(=O)c3c(C)nc(N)nc3C2)cnc1N [Compound 287, (S)-2-amino-7-[2-(5-amino-6-methoxy-pyrazin-2-yl)-4-fluoro-phenyl]-4-methyl-7,8-dihydro-6H-quinazolin-5-one] as the molecule, how does the IC50 read?
The IC50 was less than 1000 nM.

How did the IC50 turn out when Cc1nc(N)nc2c1C(=O)CC(c1ccc(F)cc1-c1ncc(C(F)(F)F)cn1)C2 (centres unmarked) [Compound 270, 2-amino-7-[4-fluoro-2-(5-trifluoromethyl-pyrimidin-2-yl)-phenyl]-4-methyl-7,8-dihydro-6H-quinazolin-5-one] was run?
The IC50 was less than 1000 nM.

How did the IC50 turn out when Cc1nc(N)nc2c1C(=O)CC(c1c(-c3cccnc3F)cnn1Cc1ccccc1)C2 (centres unmarked) [Compound 215, 2-amino-7-[2-benzyl-4-(2-fluoro-pyridin-3-yl)-2H-pyrazol-3-yl]-4-methyl-7,8-dihydro-6H-quinazolin-5-one] was run?
The IC50 was 1000 to 10000 nM.

For Cc1nc(N)nc2c1C(=O)CC(c1cc(F)ccc1Br)C2 (centres unmarked) [Compound 238, 2-amino-7-(2-bromo-5-fluoro-phenyl)-4-methyl-7,8-dihydro-6H-quinazolin-5-one], which IC50 is on record?
The IC50 was 1000 to 10000 nM.

With CCc1nc(N)nc2c1C(=O)CC(c1ccc(F)cc1-c1cncc(OC)n1)C2 (centres unmarked) [Compound 325, 2-amino-4-ethyl-7-[4-fluoro-2-(6-methoxy-pyrazin-2-yl)-phenyl]-7,8-dihydro-6H-quinazolin-5-one] as the molecule, how does the IC50 read?
The IC50 was less than 1000 nM.

Which IC50 does the source give for COc1cccc(Cc2nc(N)nc3c2C(=O)CC(c2ccccc2)C3)c1 (centres unmarked) [Compound 306, 2-amino-4-(3-methoxy-benzyl)-7-phenyl-7,8-dihydro-6H-quinazolin-5-one] here?
Its IC50 is 1000 to 10000 nM.

Which IC50 does the source give for COc1cncc(-c2cc(F)ccc2C2CC(=O)c3c(C)nc(N)nc3C2)n1 (centres unmarked) [Compound 221, 2-amino-7-[4-fluoro-2-(6-methoxy-pyrazin-2-yl)-phenyl]-4-methyl-7,8-dihydro-6H-quinazolin-5-one] here?
The IC50 was less than 1000 nM.

For COc1cncc(-c2cc(F)ccc2[C@@H]2CC(=O)c3c(C)nc(N)nc3C2)n1 [Compound 226, (S)-2-amino-7-[4-fluoro-2-(6-methoxy-pyrazin-2-yl)-phenyl]-4-methyl-7,8-dihydro-6H-quinazolin-5-one], which IC50 is on record?
The IC50 was less than 1000 nM.
